Assays:
Assay in all cases: Inhibition of receptor tyrosine kinase activity at molecular level (ELISA, Poly(Glu,Tyr)4:1 substrate phosphorylation)
Assay type in all cases: biochemical
[1] = target: FGFR1 (Homo sapiens, UniProt P11362); conditions: for 10 nM inhibition ratio FGFR1: 10 nM compound, average of two independent experiments; for inhibition ratio FGFR1 (100 nM): 100 nM compound
Protocol: (§1) Enzyme reaction substrate Poly(Glu, Tyr)4:1 was diluted with potassium-free PBS (10 mM sodium phosphate buffer, 150 mM NaCl, pH 7.2-7.4) to 20 μg/mL. […] The reaction was conducted under 37° C. for 12-16 hours. After the liquid was removed from the wells, the plate was washed three times with 200 μL/well of T-PBS (PBS containing 0.1% Tween-20), each for 5 minutes. The enzyme plate was dried in 37° C. dryer for 1-2 hours.
(§2) 50 μL ATP solution diluted with buffer (50 mM HEPES pH 7.4, 50 mM MgCl2, 0.5 mM MnCl2, 0.2 mM Na3VO4, 1 mM DTT) to a final concentration of 5 μM was added into each well. The compound was diluted with DMSO to a suitable concentration (1 μL/well) or the well contained the corresponding concentration of DMSO (negative control well) Then various kinase recombinant proteins diluted with 49 μL of reaction buffer was added to initiate the reaction. Each experiment required duplicate enzyme-free control well. The reaction was carried out for 1 hour on a 37° C. Shaker (100 rpm). The plate was washed three times with T-PBS. A dilution of the primary antibody PY99 was added (100 μL/well), and the reaction was conducted in a shaker at 37° C. for 0.5 hr. The plate was washed three times with T-PBS. A dilution of the horseradish peroxidase-labeled goat anti-mouse IgG secondary antibody was added (100 μL/well), and the reaction was conducted in a shaker at 37° C. for 0.5 hour. Plate was washed with T-PBS for three times. 2 mg/mL OPD coloration solution (diluted with 0.1 M citric acid-sodium citrate buffer containing 0.03% H2O2 (pH=5.4)) was added (100 μL/well), reacted for 1-10 minutes at 25° C. in dark. The reaction was quenched with 2M H2SO4 (50 μL/well), and read at 490 nm using a tunable microplate reader SPECTRA MAX 190.
(§3) The inhibition ratio of the sample was determined by the following formula: […]
(§4) The IC50 values were obtained via four-parameter regression analysis using the software supplied with the microplate reader.

[2] = target: RET (Homo sapiens, UniProt P07949); conditions: for 10 nM inhibition ratio RET: 10 nM compound, average of two independent experiments
Protocol: as §1, §2, §3, §4

[3] = target: KDR (Homo sapiens, UniProt P35968); conditions: for 10 nM inhibition ratio KDR: 10 nM compound, average of two independent experiments
Protocol: as §1, §2, §3, §4

RET, sequence (P07949 29-1114): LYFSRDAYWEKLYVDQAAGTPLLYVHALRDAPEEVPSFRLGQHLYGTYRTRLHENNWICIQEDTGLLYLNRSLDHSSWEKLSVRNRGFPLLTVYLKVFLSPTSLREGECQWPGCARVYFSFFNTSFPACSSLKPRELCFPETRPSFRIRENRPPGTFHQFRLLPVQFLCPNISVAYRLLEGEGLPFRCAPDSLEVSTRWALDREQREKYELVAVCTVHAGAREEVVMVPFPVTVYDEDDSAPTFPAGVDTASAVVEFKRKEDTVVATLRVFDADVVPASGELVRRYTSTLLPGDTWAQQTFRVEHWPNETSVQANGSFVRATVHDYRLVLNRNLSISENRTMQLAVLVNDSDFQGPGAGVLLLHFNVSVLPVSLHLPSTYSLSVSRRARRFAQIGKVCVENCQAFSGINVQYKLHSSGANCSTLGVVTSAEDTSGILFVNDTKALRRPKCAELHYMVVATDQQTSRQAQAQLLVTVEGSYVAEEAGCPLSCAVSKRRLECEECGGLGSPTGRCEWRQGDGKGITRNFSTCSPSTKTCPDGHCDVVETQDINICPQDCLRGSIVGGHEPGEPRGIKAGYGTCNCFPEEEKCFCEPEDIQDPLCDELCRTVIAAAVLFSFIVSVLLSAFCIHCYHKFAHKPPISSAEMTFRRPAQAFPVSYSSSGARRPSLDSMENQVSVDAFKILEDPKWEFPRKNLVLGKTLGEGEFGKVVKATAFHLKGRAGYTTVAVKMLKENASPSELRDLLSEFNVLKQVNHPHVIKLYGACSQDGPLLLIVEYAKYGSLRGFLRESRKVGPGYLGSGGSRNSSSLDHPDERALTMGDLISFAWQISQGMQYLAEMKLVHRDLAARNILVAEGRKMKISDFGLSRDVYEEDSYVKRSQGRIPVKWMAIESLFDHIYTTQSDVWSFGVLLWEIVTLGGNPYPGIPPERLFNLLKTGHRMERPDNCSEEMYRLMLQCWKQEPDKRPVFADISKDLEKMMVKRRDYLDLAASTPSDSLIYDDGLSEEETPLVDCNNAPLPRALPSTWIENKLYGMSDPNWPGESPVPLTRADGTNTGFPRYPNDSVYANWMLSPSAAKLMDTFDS
FGFR1, sequence (P11362 22-822): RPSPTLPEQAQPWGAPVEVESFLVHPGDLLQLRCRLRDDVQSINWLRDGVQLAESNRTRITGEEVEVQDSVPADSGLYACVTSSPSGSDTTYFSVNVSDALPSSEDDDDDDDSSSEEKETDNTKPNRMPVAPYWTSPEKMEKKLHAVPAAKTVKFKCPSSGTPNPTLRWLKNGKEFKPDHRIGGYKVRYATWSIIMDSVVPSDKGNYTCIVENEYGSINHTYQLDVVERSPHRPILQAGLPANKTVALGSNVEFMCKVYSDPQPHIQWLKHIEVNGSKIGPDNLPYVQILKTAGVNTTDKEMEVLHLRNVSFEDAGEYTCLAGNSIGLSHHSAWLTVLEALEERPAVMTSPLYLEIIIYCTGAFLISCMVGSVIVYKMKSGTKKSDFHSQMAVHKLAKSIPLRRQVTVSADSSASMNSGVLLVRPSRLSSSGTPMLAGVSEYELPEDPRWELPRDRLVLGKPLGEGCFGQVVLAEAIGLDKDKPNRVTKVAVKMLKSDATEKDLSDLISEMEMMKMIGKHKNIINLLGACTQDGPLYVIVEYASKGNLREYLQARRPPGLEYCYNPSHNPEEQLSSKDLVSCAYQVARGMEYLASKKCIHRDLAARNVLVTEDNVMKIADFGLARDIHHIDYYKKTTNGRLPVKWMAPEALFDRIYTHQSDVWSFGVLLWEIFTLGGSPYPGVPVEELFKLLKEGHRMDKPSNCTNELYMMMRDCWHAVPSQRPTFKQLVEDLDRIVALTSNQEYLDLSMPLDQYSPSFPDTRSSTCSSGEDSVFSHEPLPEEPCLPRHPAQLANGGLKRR
KDR, sequence (P35968 20-1356): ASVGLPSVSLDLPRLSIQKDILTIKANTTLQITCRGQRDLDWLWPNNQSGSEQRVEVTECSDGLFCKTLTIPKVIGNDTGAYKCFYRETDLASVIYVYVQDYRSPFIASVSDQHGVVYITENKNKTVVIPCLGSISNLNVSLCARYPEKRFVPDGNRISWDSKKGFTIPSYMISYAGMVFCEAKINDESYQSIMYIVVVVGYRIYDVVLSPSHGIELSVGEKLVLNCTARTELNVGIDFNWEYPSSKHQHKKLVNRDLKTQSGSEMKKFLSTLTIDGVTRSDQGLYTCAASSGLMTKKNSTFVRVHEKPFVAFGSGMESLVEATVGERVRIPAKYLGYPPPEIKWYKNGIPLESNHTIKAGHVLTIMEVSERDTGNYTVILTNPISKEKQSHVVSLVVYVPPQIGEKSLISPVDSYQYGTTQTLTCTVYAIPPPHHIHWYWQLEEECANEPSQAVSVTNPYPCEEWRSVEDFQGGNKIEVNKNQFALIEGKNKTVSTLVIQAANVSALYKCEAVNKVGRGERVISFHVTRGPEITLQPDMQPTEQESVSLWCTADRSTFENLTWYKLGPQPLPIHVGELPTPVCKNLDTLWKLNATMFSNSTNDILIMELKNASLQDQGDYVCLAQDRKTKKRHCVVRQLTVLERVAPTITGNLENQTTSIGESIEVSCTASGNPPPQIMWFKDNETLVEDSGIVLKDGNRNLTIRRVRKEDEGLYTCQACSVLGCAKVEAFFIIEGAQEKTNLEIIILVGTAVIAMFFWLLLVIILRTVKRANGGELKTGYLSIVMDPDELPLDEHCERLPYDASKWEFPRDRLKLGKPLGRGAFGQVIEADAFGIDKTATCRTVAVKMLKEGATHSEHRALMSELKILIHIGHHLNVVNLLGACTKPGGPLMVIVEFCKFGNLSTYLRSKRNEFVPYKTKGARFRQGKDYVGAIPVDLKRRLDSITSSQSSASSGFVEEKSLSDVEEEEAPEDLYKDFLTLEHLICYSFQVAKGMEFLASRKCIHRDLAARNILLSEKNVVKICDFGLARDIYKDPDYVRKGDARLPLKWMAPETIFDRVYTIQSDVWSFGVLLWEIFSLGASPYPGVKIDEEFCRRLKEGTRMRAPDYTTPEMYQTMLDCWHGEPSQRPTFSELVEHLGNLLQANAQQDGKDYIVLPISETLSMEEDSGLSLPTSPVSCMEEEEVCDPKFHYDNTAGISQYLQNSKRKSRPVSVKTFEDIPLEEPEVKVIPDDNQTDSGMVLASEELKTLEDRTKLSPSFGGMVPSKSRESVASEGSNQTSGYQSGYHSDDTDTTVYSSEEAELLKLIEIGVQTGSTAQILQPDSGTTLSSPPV

| SMILES | 10 nM inhibition ratio FGFR1 [1] | 10 nM inhibition ratio RET [2] | 10 nM inhibition ratio KDR [3] | inhibition ratio FGFR1 (100 nM) [1] | inhibition ratio RET (100 nM) ([2]; 100 nM compound) | inhibition ratio KDR (100 nM) ([3]; 100 nM compound) |
| --- | --- | --- | --- | --- | --- | --- |
| CN1CCN(Cc2ccc(NC(=O)c3ccc(Cl)c(C#Cc4cc(OC(F)(F)F)cnc4N)c3)cc2C(F)(F)F)CC1 [Example 23] | 74.1 | 60.0 | 33.1 |  |  |  |
| CN1CCN(Cc2ccc(NC(=O)c3ccc(Cl)c(C#Cc4cccnc4F)c3)cc2C(F)(F)F)CC1 [HuFGFR150, reference compound] | 35.1 | 30.3 | 32.3 |  |  |  |
| CN1CCN(Cc2ccc(NC(=O)c3ccc(F)c(C#Cc4cccnc4N)c3)cc2C(F)(F)F)CC1 [Example 2] | 73.0 | 69.2 | 44.3 |  |  |  |
| CN1CCN(Cc2ccc(NC(=O)c3cccc(C#Cc4nc(F)cnc4N)c3)cc2C(F)(F)F)CC1 [Example 47] | 55.1 | 89.1 | 40.8 |  |  |  |
| CNCc1cnc(N)c(C#Cc2cc(C(=O)Nc3ccc(CN4CCN(C)CC4)c(C(F)(F)F)c3)ccc2Cl)c1 [Example 33] | 49.8 | 77.8 | 35.1 |  |  |  |
| CN1CCN(Cc2ccc(NC(=O)c3ccc(Cl)c(C#Cc4cccnc4N)c3)cc2C(F)(F)F)CC1.Cl [Example 52] | 75.2 | 89.3 | 40.2 |  |  |  |
| [2H]C([2H])([2H])N1CCN(Cc2ccc(NC(=O)c3ccc(Cl)c(C#Cc4cccnc4N)c3)cc2C(F)(F)F)CC1 [Example 53] | 78.3 | 87.0 | 42.1 |  |  |  |
| COc1ccc(C(=O)Nc2ccc(CN3CCN(C)CC3)c(C(F)(F)F)c2)cc1C#Cc1cccnc1N [Example 4] | 51.1 | 52.0 | 4.6 |  |  |  |
| CN1CCN(Cc2ccc(NC(=O)c3ccc(C#N)c(C#Cc4cccnc4N)c3)cc2C(F)(F)F)CC1 [Example 5] | 45.1 | 40.1 | 15.2 |  |  |  |
| CN1CCN(Cc2ccc(NC(=O)c3cc(C#N)cc(C#Cc4cccnc4N)c3)cc2C(F)(F)F)CC1 [Example 11] | 54.0 | 68.2 | 34.3 |  |  |  |
| CN1CCN(Cc2ccc(NC(=O)c3ccc(Cl)c(C#Cc4cc(OC5CC5)cnc4N)c3)cc2C(F)(F)F)CC1 [Example 24] | 64.1 | 66.1 | 23.5 |  |  |  |
| Cc1ncccc1C#Cc1cc(C(=O)Nc2ccc(CN3CCN(C)CC3)c(C(F)(F)F)c2)ccc1Cl [HuFGFR143, reference compound] |  | 35.2 | 26.4 | 19.9 |  |  |
| CN1CCN(Cc2ccc(NC(=O)c3cccc(C#Cc4cc(NC(=O)C5CC5)cnc4N)c3)cc2C(F)(F)F)CC1 [Example 38] | 51.8 | 65.3 | 44.1 |  |  |  |
| CN1CCN(Cc2ccc(NC(=O)c3ccc(Cl)c(C#Cc4ccc(N)nc4)c3)cc2C(F)(F)F)CC1 [HuFGFR151, reference compound] |  |  |  | 21.1 | 29.7 | 23.9 |
| CN1CCN(Cc2ccc(NC(=O)c3cc(F)cc(C#Cc4cccnc4N)c3)cc2C(F)(F)F)CC1 [Example 7] | 80.7 | 92.4 | 38.9 |  |  |  |
| Cc1cnc(N)c(C#Cc2cc(C(=O)Nc3ccc(CN4CCN(C)CC4)c(C(F)(F)F)c3)ccc2Cl)c1 [Example 18] | 65.5 | 58.2 | 20.3 |  |  |  |
| CN1CCN(Cc2ccc(NC(=O)c3ccc(Cl)c(C#Cc4cc(N(C)C)cnc4N)c3)cc2C(F)(F)F)CC1 [Example 36] | 49.9 | 56.3 | 12.1 |  |  |  |
| CN1CCN(Cc2ccc(NC(=O)c3cc(Cl)cc(C#Cc4cccnc4N)c3)cc2C(F)(F)F)CC1 [Example 9] | 60.7 | 83.4 | 28.9 |  |  |  |
| CN1CCN(Cc2ccc(NC(=O)c3cc(C#Cc4cccnc4N)ccc3F)cc2C(F)(F)F)CC1 [Example 8] | 46.0 | 53.4 | 30.4 |  |  |  |
| CN(C)Cc1cnc(N)c(C#Cc2cc(C(=O)Nc3ccc(CN4CCN(C)CC4)c(C(F)(F)F)c3)ccc2Cl)c1 [Example 34] | 44.3 | 57.8 | 18.0 |  |  |  |
| CN1CCN(Cc2ccc(NC(=O)c3ccc(Cl)c(C#Cc4cc(OCCO)cnc4N)c3)cc2C(F)(F)F)CC1 [Example 26] | 77.2 | 79.4 | 24.3 |  |  |  |
| Nc1ncccc1C#Cc1cc(C(=O)Nc2ccc(CN3CCNCC3)c(C(F)(F)F)c2)ccc1Cl [Example 51] | 67.9 | 79.4 | 38.2 |  |  |  |
| CN1CCN(Cc2ccc(NC(=O)c3ccc(Cl)c(C#Cc4cc(C#N)cnc4N)c3)cc2C(F)(F)F)CC1 [Example 21] | 44.3 | 58.1 | 32.0 |  |  |  |
| COc1ncccc1C#Cc1cc(C(=O)Nc2ccc(CN3CCN(C)CC3)c(C(F)(F)F)c2)ccc1Cl [HuFGFR148, reference compound] |  | 21.7 | 18.2 | 22.4 |  |  |
| COCc1cnc(N)c(C#Cc2cc(C(=O)Nc3ccc(CN4CCN(C)CC4)c(C(F)(F)F)c3)ccc2Cl)c1 [Example 31] | 59.3 | 67.8 | 35.1 |  |  |  |
| Cc1cc(C#Cc2cccnc2N)cc(C(=O)Nc2ccc(CN3CCN(C)CC3)c(C(F)(F)F)c2)c1 [Example 12] | 75.1 | 73.2 | 24.0 |  |  |  |
| CN1CCN(Cc2ccc(NC(=O)c3ccc(Cl)c(C#Cc4cc(F)cnc4N)c3)cc2C(F)(F)F)CC1 [Example 16] | 70.5 | 71.8 | 25.2 |  |  |  |
| CN(C)CCOc1cnc(N)c(C#Cc2cc(C(=O)Nc3ccc(CN4CCN(C)CC4)c(C(F)(F)F)c3)ccc2Cl)c1 [Example 29] | 44.9 | 55.2 | 14.3 |  |  |  |
| CC(=O)Nc1cnc(N)c(C#Cc2cccc(C(=O)Nc3ccc(CN4CCN(C)CC4)c(C(F)(F)F)c3)c2)c1 [Example 37] | 48.1 | 66.3 | 33.2 |  |  |  |
| CN1CCC(Oc2ccc(NC(=O)c3ccc(Cl)c(C#Cc4cccnc4N)c3)cc2C(F)(F)F)CC1 [Example 41] | 53.4 | 77.3 | 35.4 |  |  |  |

Reference: US10988456B2, “O-aminoheteroaryl alkynyl-containing compound, preparation method therefor, and use thereof” (SHANGHAI INSTITUTE OF MATERIA MEDICA, CHINESE ACADEMY OF …, priority 2017, dated 2021)
